Assay results published in publication PMC12652692, “Synthesis and In Vitro Anticancer Evaluation of Novel Phosphonium Derivatives of Chrysin” (International Journal of Molecular Sciences, 2025).

How the values were obtained:
Assay in all cases: NCI60 one-dose screen
Assay type in all cases: cell-based
OVCAR-5 = conditions: Homo sapiens; OVCAR-5, 10 μM; read-out: Growth percent
Method: (§1) The screening results are presented in the Supplementary Materials (Table S1), where the cytotoxicity was determined for the 10 µM concentration. […] The negative numbers indicate significant decreases in the cell number. […] Compared to the reference chrysin (2), all phosphonium hybrids (3a–h) had significant antiproliferative activities. […] At the same time, it should be noted that more than 60% average reduction was also obtained in the case of the other examined conjugates (3a–h).
(§2) A detailed description of the NCI screening procedures, including the one-dose and five-dose tests, can be found in the Supplementary Materials, on the website of NCI [39], and in our previous work.
(§3) A detailed description of the NCI screening procedures can also be found on the website of NCI [39], and in our […]
(§4) All candidates were examined at first at a single high dose (10 μM) in the full NCI60 cell panel. The value reported for the one-dose test is growth relative to the no-drug control and relative to the time zero number of cells. This made possible the disclosure of both growth inhibition (numbers between 0 and 100) and lethality (numbers less than 0). For example, a value of 100 means no growth inhibition. A value of 20 would mean 80% growth inhibition. A value of 0 means no net growth over the course of the analysis. A value of −20 would mean 20% lethality. A value of −100 means all cells are dead. […]
(§5) concentration levels. The human tumor cell lines of the cancer screening panel were grown in RPMI 1640 medium containing 5% fetal bovine serum and 2 mM l-glutamine. Characteristically, cells were injected in 96-well microtiter plates in 0.1 mL at plating densities ranging from 5000 to 40,000 cells/well, depending on the doubling time of individual cell lines. After cell inoculation, the microtiter plates were incubated at 37 °C, 5% carbon dioxide, 95% air, and 100% relative humidity for 24 hours before the addition of tested compounds. After 24 hours, 2 plates of each cell line were fixed in situ with Cl3COOH (TCA), to represent a measurement of the cell population for each cell line at the time of drug addition (tz). Tested compounds were solubilized in DMSO at 400-fold the desired final maximum test concentration and stored frozen before application. In the course of the drug addition, an aliquot of frozen concentrate was thawed and diluted to twice the desired final maximum test concentration with a complete medium containing 50 μg mL−1 gentamicin. Additional four, 10-fold or ½ log serial dilutions were produced to furnish a total of five drug concentrations plus control. Aliquots of 0.1 mL of these different drug dilutions were added to the appropriate microtiter wells already containing 0.1 mL of medium, resulting in the required final drug concentrations.
(§6) Following drug addition, the plates were incubated at 37 °C, 5% carbon dioxide, 95% air, and 100% relative humidity for an additional 48 hours. For adherent cells, the test was finished by the addition of cold Cl3COOH. Cells were fixed in situ by the addition of 50 μL of cold 50% (w/v) Cl3COOH, and incubated at 4 °C for 1 hour. The supernatant was discarded, and the plates were washed with H2O (5×) and dried in air. Sulforhodamine B (SRB) solution (0.1 mL) at 0.4% (w/v) in 1% CH3COOH was added to each well, and plates were incubated at RT for 10 min. After staining, the unbound dye was removed by washing five times with 1% CH3COOH, and the plates were dried in the air. The bound stain is afterward solubilized with a 10 mM trizma base, and the absorbance is read on an automated plate reader at λ = 515 nm. Utilizing the seven absorbance measurements [time zero (tz), control growth (c), and test growth in the presence of the drug at the five concentration levels (ti)], the percentage growth was determined at each of the drug concentration levels. Growth inhibition (%) was calculated as:
(§7) [(ti − tz)/(c − tz)] × 100, for concentrations where ti ≥ tz (1) […]

UO-31 = conditions: Homo sapiens; UO-31, 10 μM; read-out: Growth percent
Method: as §1, §2, §3, §4, §5, §6, §7

UACC-257 = conditions: Homo sapiens; UACC-257, 10 μM; read-out: Growth percent
Method: as §1, §2, §3, §4, §5, §6, §7

786-0 = conditions: Homo sapiens; 786-0, 10 μM; read-out: Growth percent
Method: as §1, §2, §3, §4, §5, §6, §7

ACHN = conditions: Homo sapiens, read-out: Growth percent
Method: as §1, §2, §3, §4, §5, §6, §7

COLO 205 = conditions: Homo sapiens; COLO 205, 10 μM; read-out: Growth percent
Method: as §1, §2, §3, §4, §5, §6, §7

HS 578T = conditions: Homo sapiens, read-out: Growth percent
Method: as §1, §2, §3, §4, §5, §6, §7

K-562 = conditions: Homo sapiens, K562; K-562, 10 μM; read-out: Growth percent
Method: as §1, §2, §3, §4, §5, §6, §7

NCI-H23 = conditions: Homo sapiens; NCI-H23, 10 μM; read-out: Growth percent
Method: as §1, §2, §3, §4, §5, §6, §7

IGROV1 = conditions: Homo sapiens, IGROV-1; IGROV1, 10 μM; read-out: Growth percent
Method: as §1, §2, §3, §4, §5, §6, §7

HT29 = conditions: Homo sapiens, HT-29; HT29, 10 μM; read-out: Growth percent
Method: as §1, §2, §3, §4, §5, §6, §7

HCC-2998 = conditions: Homo sapiens; HCC-2998, 10 μM; read-out: Growth percent
Method: as §1, §2, §3, §4, §5, §6, §7

NCI-H460 = conditions: Homo sapiens; NCI-H460, 10 μM; read-out: Growth percent
Method: as §1, §2, §3, §4, §5, §6, §7

A498 = conditions: Homo sapiens; A498, 10 μM; read-out: Growth percent
Method: as §1, §2, §3, §4, §5, §6, §7

SK-MEL-2 = conditions: Homo sapiens; SK-MEL-2, 10 μM; read-out: Growth percent
Method: as §1, §2, §3, §4, §5, §6, §7

SW-620 = conditions: Homo sapiens; SW-620, 10 μM; read-out: Growth percent
Method: as §1, §2, §3, §4, §5, §6, §7

SK-MEL-28 = conditions: Homo sapiens; SK-MEL-28, 10 μM; read-out: Growth percent
Method: as §1, §2, §3, §4, §5, §6, §7

NCI-H322M = conditions: Homo sapiens, read-out: Growth percent
Method: as §1, §2, §3, §4, §5, §6, §7

MDA-MB-231/ATCC = conditions: Homo sapiens, read-out: Growth percent
Method: as §1, §2, §3, §4, §5, §6, §7

SK-OV-3 = conditions: Homo sapiens; SK-OV-3, 10 μM; read-out: Growth percent
Method: as §1, §2, §3, §4, §5, §6, §7

Which activity at 10 µM (OVCAR-5) does the source give for `O=c1cc(-c2ccccc2)oc2cc(O)cc(O)c12` [compound 2, 5,7-dihydroxyflavone, reference compound] here?
Its activity at 10 µM is 99.1%.

What about the activity at 10 µM (UO-31) of the same compound?
The activity at 10 µM was 89.4%.

And the activity at 10 µM (UACC-257)?
Its activity at 10 µM is 119%.

What about the activity at 10 µM (786-0) of the same compound?
The activity at 10 µM was 99.2%.

What about the activity at 10 µM (ACHN) of the same compound?
The activity at 10 µM was 85%.

And the activity at 10 µM (COLO 205)?
Its activity at 10 µM is 105%.

And the activity at 10 µM (HS 578T)?
The activity at 10 µM was 92.5%.

And the activity at 10 µM (K-562)?
The activity at 10 µM was 96.8%.

And the activity at 10 µM (NCI-H23)?
The activity at 10 µM was 92.6%.

And the activity at 10 µM (IGROV1)?
The activity at 10 µM was 95.2%.

And the activity at 10 µM (HT29)?
Its activity at 10 µM is 103%.

What about the activity at 10 µM (HCC-2998) of the same compound?
Its activity at 10 µM is 103%.

And the activity at 10 µM (NCI-H460)?
The activity at 10 µM was 98.3%.

What about the activity at 10 µM (A498) of the same compound?
Its activity at 10 µM is 86.6%.

What about the activity at 10 µM (SK-MEL-2) of the same compound?
Its activity at 10 µM is 110%.

What about the activity at 10 µM (SW-620) of the same compound?
The activity at 10 µM was 102%.

And the activity at 10 µM (SK-MEL-28)?
The activity at 10 µM was 102%.

And the activity at 10 µM (NCI-H322M)?
The activity at 10 µM was 98.3%.

What about the activity at 10 µM (MDA-MB-231/ATCC) of the same compound?
The activity at 10 µM was 82.6%.

And the activity at 10 µM (SK-OV-3)?
The activity at 10 µM was 128%.
